Experimental data published in ChEMBL document CHEMBL1139992, “Synthesis and biological activity of enantiomeric pairs of 5-vinylthiolactomycin congeners” (Bioorg Med Chem Lett, 2007).
≈ marks a conversion by molar mass, not a printed value.

Columns and labels:
[1] = Inhibition of type1 FAS in HepG2 cells; format: cell-based, Homo sapiens
Staphylococcus aureus = experiment: Antimicrobial activity against Staphylococcus aureus; format: functional
Moraxella catarrhalis = experiment: Antimicrobial activity against Moraxella catarrhalis ATCC 25238; format: functional
Haemophilus influenzae = experiment: Antimicrobial activity against Haemophilus influenzae IID983; format: functional
Bacteroides fragilis = experiment: Antimicrobial activity against Bacteroides fragilis GAI5560; format: functional

Row | SMILES | IC50 [1] [µg/mL] | MIC (Staphylococcus aureus) [µg/mL] | MIC (Moraxella catarrhalis) [µg/mL] | MIC (Haemophilus influenzae) [µg/mL] | MIC (Bacteroides fragilis) [µg/mL]
1 | CCC/C=C/[C@@]1(C)SC(=O)C(C)=C1O | 41.5 (≈ 195 µM) | > 128 | > 128 | > 128 | > 128
2 | C=C/C(C)=C/[C@@]1(C)SC(=O)C(C)=C1O [THIOLACTOMYCIN] | > 80 | 128 (≈ 609 µM) | 0.25 (≈ 1.19 µM) | 2 (≈ 9.51 µM) | 1 (≈ 4.76 µM)
3 | C/C=C/[C@]1(C)SC(=O)C(C)=C1O | 37.1 (≈ 201 µM) | > 128 | > 128 | > 128 | > 128
4 | C=C1C(=O)O[C@@H](CCCCCCCC)[C@@H]1C(=O)O | 7.4 (≈ 29.1 µM) | – | – | – | –
5 | C/C=C/[C@@]1(C)SC(=O)C(C)=C1O | 72.3 (≈ 392 µM) | > 128 | > 128 | > 128 | > 128
6 | CCCCCC/C=C/[C@@]1(C)SC(=O)C(C)=C1O | 57 (≈ 224 µM) | > 128 | > 128 | > 128 | > 128
7 | C=C/C(C)=C/[C@]1(C)SC(=O)C(C)=C1O | 43.7 (≈ 208 µM) | > 128 | > 128 | – | –
8 | CCCCCC/C=C/[C@]1(C)SC(=O)C(C)=C1O (stereo in doubt; form 1) | 34.8 (≈ 137 µM) | – | – | – | –
9 | CCCC/C=C/[C@@]1(C)SC(=O)C(C)=C1O | 33.7 (≈ 149 µM) | > 128 | > 128 | > 128 | > 128
10 | CC/C=C/[C@@]1(C)SC(=O)C(C)=C1O | 57.5 (≈ 290 µM) | > 128 | > 128 | > 128 | > 128
11 | CCC/C=C/[C@]1(C)SC(=O)C(C)=C1O | 20 (≈ 94.2 µM) | > 128 | > 128 | > 128 | > 128
12 | CC/C=C/[C@]1(C)SC(=O)C(C)=C1O | 47 (≈ 237 µM) | > 128 | > 128 | > 128 | > 128
13 | CCCC/C=C/[C@]1(C)SC(=O)C(C)=C1O | 19.9 (≈ 87.9 µM) | > 128 | > 128 | > 128 | > 128
14 | O=C(O)c1cn(C2CC2)c2cc(N3CCNCC3)c(F)cc2c1=O [CIPROFLOXACIN] | – | 0.063 (≈ 0.19 µM) | 0.031 (≈ 0.0936 µM) | 0.008 (≈ 0.0241 µM) | 4 (≈ 12.1 µM)

Further lines, results first:

Row | IC50 [1] [µg/mL] | MIC (Staphylococcus aureus) [µg/mL] | MIC (Moraxella catarrhalis) [µg/mL] | MIC (Haemophilus influenzae) [µg/mL] | MIC (Bacteroides fragilis) [µg/mL] | SMILES
15 | 18.9 (≈ 103 µM) | > 128 | > 128 | > 128 | > 128 | CC/C=C/[C@]1(C)SC(=O)C=C1O
16 | 72.1 (≈ 424 µM) | > 128 | > 128 | > 128 | > 128 | C/C=C/[C@@]1(C)SC(=O)C=C1O
17 | > 80 | > 128 | 16 (≈ 81.5 µM) | 32 (≈ 163 µM) | 128 (≈ 652 µM) | C=C/C(C)=C/[C@@]1(C)SC(=O)C=C1O
18 | 41.6 (≈ 210 µM) | > 128 | > 128 | > 128 | > 128 | CCC/C=C/[C@@]1(C)SC(=O)C=C1O
19 | > 80 | > 128 | > 128 | > 128 | > 128 | C=C[C@@]1(C)SC(=O)C=C1O
20 | 8.8 (≈ 44.4 µM) | > 128 | > 128 | > 128 | > 128 | CCC/C=C/[C@]1(C)SC(=O)C=C1O
21 | > 80 | > 128 | > 128 | > 128 | > 128 | C=C[C@@]1(C)SC(=O)C(C)=C1O
22 | 70.1 (≈ 449 µM) | > 128 | > 128 | > 128 | > 128 | C=C[C@]1(C)SC(=O)C=C1O
23 | 21 (≈ 98.9 µM) | > 128 | > 128 | > 128 | > 128 | CCCC/C=C/[C@]1(C)SC(=O)C=C1O
24 | 19 (≈ 96.8 µM) | > 128 | > 128 | – | – | C=C/C(C)=C/[C@]1(C)SC(=O)C=C1O
25 | > 80 | > 128 | > 128 | > 128 | > 128 | C=C[C@]1(C)SC(=O)C(C)=C1O
26 | > 80 | > 128 | > 128 | > 128 | > 128 | C/C=C/[C@]1(C)SC(=O)C=C1O
27 | 40.3 (≈ 219 µM) | > 128 | > 128 | > 128 | > 128 | CC/C=C/[C@@]1(C)SC(=O)C=C1O
28 | 18.6 (≈ 87.6 µM) | > 128 | > 128 | > 128 | > 128 | CCCC/C=C/[C@@]1(C)SC(=O)C=C1O
29 | 20.1 (≈ 83.6 µM) | > 128 | > 128 | > 128 | > 128 | CCCCCC/C=C/[C@@]1(C)SC(=O)C=C1O
